Laboratory results taken from US6355799B1, “Substituted benzene compounds, process for their preparation, and herbicidal and defoliant compositions containing them” (ISK Americas Incorporated, priority 1997, dated 2002).

What was measured:
Format in all cases: in vivo
[1] = test system: field corn (Zea mays L., var. Dekalb 535, CORN); assay: Post-emerge test, crop safety; conditions: post-emerge, 14 days after application, rating scale 0-100
Method in brief: (§1)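 Applied at 15–1000 g ai/ha from acetone in 187 l/ha spray volume. Post-emergence applications included 0.25% v/v non-ionic surfactant and reached plants sown 8–21 days before. Pre-emergence applications were incorporated by surface watering. Efficacy or crop damage was rated on a 0–100 scale after 14 days.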

[2] = test system: upland rice (Oryza sp., var. Tebonnet, RICE); assay: Post-emerge test, crop safety; conditions: post-emerge, 14 days after application, rating scale 0-100
Method in brief: as §1

[3] = test system: redroot pigweed (Amaranthus retroflexus, AMARE); assay: Pre-emerge test, greenhouse herbicide activity screening; conditions: pre-emerge, 14 days after application, rating scale 0-100
Method in brief: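 Plants grown in 10 cm pots of sandy loam mix received acetone-dissolved compounds through a moving flat-fan nozzle. Doses ranged from 15 to 1000 g ai/ha. Pre-emerge pots were seeded one day earlier, post-emerge pots 8–21 days earlier. Fourteen days on, each pot was graded 0–100 for damage.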

[4] = test system: field corn (Zea mays L., var. Dekalb 535, CORN); assay: Pre-emerge test, crop safety; conditions: pre-emerge, 14 days after application, rating scale 0-100
Method in brief: (§2)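 Compounds in acetone were track-sprayed at 187 l/ha, 15–1000 g ai/ha, onto sandy loam pots. Pre-emerge seeds were sown one day before spraying, with surface watering afterwards. Post-emerge plants were at the 2–3 leaf stage and sprayed with 0.25% v/v non-ionic surfactant. Injury was rated 0–100 at 14 days.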

[5] = test system: upland rice (Oryza sp., var. Tebonnet, RICE); assay: Pre-emerge test, crop safety; conditions: pre-emerge, 14 days after application, rating scale 0-100
Method in brief: as §2

[6] = test system: redroot pigweed (Amaranthus retroflexus, AMARE); assay: Post-emerge test, greenhouse herbicide activity screening; conditions: post-emerge, 14 days after application
Method in brief: (§3)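 Compounds in acetone were track-sprayed at 15–1000 g ai/ha: pre-emergence onto soil sown the previous day, then top-watered to incorporate and later bottom-watered; post-emergence onto 2–3 leaf plants with 0.25% v/v surfactant, bottom-watered only. Ratings on a 0–100 phytotoxicity scale were taken at day 14.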

[7] = test system: green foxtail (Setaria viridis, SETVI); assay: as above; conditions: post-emerge, 14 days after application, rating scale 0-100
Method in brief: as §3

[8] = test system: barnyardgrass (Echinochloa crus-galli, ECHCG); assay: as above; conditions: post-emerge, 14 days after application, rating scale 0-100
Method in brief: as §3

[9] = test system: velvetleaf (Abutilon theophrasti, ABUTH); assay: as above; conditions: post-emerge, 14 days after application, rating scale 0-100
Method in brief: as §3

[10] = test system: large crabgrass (Digitaria sanguinalis, DIGSA); assay: as above; conditions: post-emerge, 14 days after application, rating scale 0-100
Method in brief: as §3

[11] = test system: johnsongrass (Sorghum halepense, SORHA); assay: as above; conditions: post-emerge, 14 days after application, rating scale 0-100
Method in brief: as §3

[12] = test system: ivyleaf morningglory (Ipomoea hederacea, IPOHE); assay: as above; conditions: post-emerge, 14 days after application, rating scale 0-100
Method in brief: as §3

[13] = test system: sicklepod (Cassia obtusifolia, CASOB); assay: as above; conditions: post-emerge, 14 days after application, rating scale 0-100
Method in brief: as §3

[14] = test system: lambsquarters (Chenopodium album, CHEAL); assay: as above; conditions: post-emerge, 14 days after application, rating scale 0-100
Method in brief: as §3

[15] = test system: green foxtail (Setaria viridis, SETVI); assay: Pre-emerge test, greenhouse herbicide activity screening; conditions: pre-emerge, 14 days after application, rating scale 0-100
Method in brief: as §1

[16] = test system: barnyardgrass (Echinochloa crus-galli, ECHCG); assay: as above; conditions: pre-emerge, 14 days after application, rating scale 0-100
Method in brief: as §1

[17] = test system: common ragweed (Ambrosia artemisizfolia L., AMBEL); assay: as above; conditions: pre-emerge, 14 days after application, rating scale 0-100
Method in brief: as §1

[18] = test system: velvetleaf (Abutilon theophrasti, ABUTH); assay: as above; conditions: pre-emerge, 14 days after application, rating scale 0-100
Method in brief: as §1

[19] = test system: large crabgrass (Digitaria sanguinalis, DIGSA); assay: as above; conditions: pre-emerge, 14 days after application, rating scale 0-100
Method in brief: as §1

[20] = test system: johnsongrass (Sorghum halepense, SORHA); assay: as above; conditions: pre-emerge, 14 days after application, rating scale 0-100
Method in brief: as §1

[21] = test system: ivyleaf morningglory (Ipomoea hederacea, IPOHE); assay: as above; conditions: pre-emerge, 14 days after application, rating scale 0-100
Method in brief: as §1

[22] = test system: sicklepod (Cassia obtusifolia, CASOB); assay: as above; conditions: pre-emerge, 14 days after application, rating scale 0-100
Method in brief: as §1

[23] = test system: lambsquarters (Chenopodium album, CHEAL); assay: as above; conditions: pre-emerge, 14 days after application, rating scale 0-100
Method in brief: as §1

COc1c(Cl)cc(F)c(-n2c(=O)cc(C(F)(F)F)n(C)c2=O)c1NNC(=O)c1ccccc1 [15-3]
Post-emerge Herbicidal Activity CORN (crop damage rating) ([1]; 63 g ai/ha): 25
Post-emerge Herbicidal Activity CORN (crop damage rating) ([1]; 250 g ai/ha): 80
Post-emerge Herbicidal Activity RICE (crop damage rating) ([2]; 63 g ai/ha): 50
Post-emerge Herbicidal Activity RICE (crop damage rating) ([2]; 250 g ai/ha): 90
phytotoxicity rating AMARE ([3]; 63 g ai/ha): 100
phytotoxicity rating AMARE ([3]; 250 g ai/ha): 100
phytotoxicity rating CORN ([4]; 63 g ai/ha): 90
phytotoxicity rating CORN ([4]; 250 g ai/ha): 100
phytotoxicity rating RICE ([5]; 63 g ai/ha): 95
phytotoxicity rating RICE ([5]; 250 g ai/ha): 100
Post-emerge Herbicidal Activity AMARE (phytotoxicity rating) ([6]; 63 g ai/ha, rating scale 0-100 (0 no damage, 100 complete death)): 95
Post-emerge Herbicidal Activity AMARE (phytotoxicity rating) ([6]; 250 g ai/ha, rating scale 0-100): 100
Post-emerge Herbicidal Activity SETVI (phytotoxicity rating) ([7]; 63 g ai/ha): 30
Post-emerge Herbicidal Activity SETVI (phytotoxicity rating) ([7]; 250 g ai/ha): 80
Post-emerge Herbicidal Activity ECHCG (phytotoxicity rating) ([8]; 63 g ai/ha): 10
Post-emerge Herbicidal Activity ECHCG (phytotoxicity rating) ([8]; 250 g ai/ha): 90
Post-emerge Herbicidal Activity ABUTH (phytotoxicity rating) ([9]; 63 g ai/ha): 100
Post-emerge Herbicidal Activity ABUTH (phytotoxicity rating) ([9]; 250 g ai/ha): 100
Post-emerge Herbicidal Activity DIGSA (phytotoxicity rating) ([10]; 63 g ai/ha): 20
Post-emerge Herbicidal Activity DIGSA (phytotoxicity rating) ([10]; 250 g ai/ha): 80
Post-emerge Herbicidal Activity SORHA (phytotoxicity rating) ([11]; 63 g ai/ha): 0
Post-emerge Herbicidal Activity SORHA (phytotoxicity rating) ([11]; 250 g ai/ha): 90
Post-emerge Herbicidal Activity IPOHE (phytotoxicity rating) ([12]; 63 g ai/ha): 95
Post-emerge Herbicidal Activity IPOHE (phytotoxicity rating) ([12]; 250 g ai/ha): 100
Post-emerge Herbicidal Activity CASOB (phytotoxicity rating) ([13]; 63 g ai/ha): 70
Post-emerge Herbicidal Activity CASOB (phytotoxicity rating) ([13]; 250 g ai/ha): 100
Post-emerge Herbicidal Activity CHEAL (phytotoxicity rating) ([14]; 63 g ai/ha): 95
Post-emerge Herbicidal Activity CHEAL (phytotoxicity rating) ([14]; 250 g ai/ha): 100
phytotoxicity rating SETVI ([15]; 63 g ai/ha): 100
phytotoxicity rating SETVI ([15]; 250 g ai/ha): 100
phytotoxicity rating ECHCG ([16]; 63 g ai/ha): 100
phytotoxicity rating ECHCG ([16]; 250 g ai/ha): 100
phytotoxicity rating AMBEL ([17]; 63 g ai/ha): 100
phytotoxicity rating AMBEL ([17]; 250 g ai/ha): 100
phytotoxicity rating ABUTH ([18]; 63 g ai/ha): 100
phytotoxicity rating ABUTH ([18]; 250 g ai/ha): 100
phytotoxicity rating DIGSA ([19]; 63 g ai/ha): 100
phytotoxicity rating DIGSA ([19]; 250 g ai/ha): 100
phytotoxicity rating SORHA ([20]; 63 g ai/ha): 100
phytotoxicity rating SORHA ([20]; 250 g ai/ha): 100
phytotoxicity rating IPOHE ([21]; 63 g ai/ha): 100
phytotoxicity rating IPOHE ([21]; 250 g ai/ha): 100
phytotoxicity rating CASOB ([22]; 63 g ai/ha): 100
phytotoxicity rating CASOB ([22]; 250 g ai/ha): 100
phytotoxicity rating CHEAL ([23]; 63 g ai/ha): 100
phytotoxicity rating CHEAL ([23]; 250 g ai/ha): 100
